From ChEMBL document CHEMBL1158718, “4-Hydroxybenzoyl derivative from the aqueous extract of the hydroid Campanularia sp” (J Nat Prod, 2005)
Activity calls are given as the source filed them. The calls are words filed in the database; no cut-off is given here.

Experiments:
[1] = system: ARP1; assay: Induction of P21WAF1 gene expression in human ARP1 cells; format: functional, cell-based
[2] = system: ARP1; assay: Growth inhibition of human ARP1 cells up to 100 uM; format: functional, cell-based
[3] = target: Histone deacetylase (Homo sapiens) (UniProt Q13547+O15379+Q9UBN7+Q92769+Q9UQL6+Q8WUI4+Q9BY41+Q96DB2+P56524+Q9UKV0+Q969S8); assay: Inhibition of HDAC in human ARP1 cells; format: cell-based

Row | SMILES | Activity [1] | Activity [2] | Activity [3]
1 | O=C(CCCCCCC(=O)Nc1ccccc1)NO | Active |  | 
2 | N=C(N)NCCCCNC(=O)C(=O)c1ccc(O)cc1 |  | inactive | inactive
